# Results reported in paper PMC4204886 (Biochemistry, 2014).
# Assays:
# [1] = biological target: T1, class C P99 β-lactamase (Enterobacter cloacae, UniProt P05364); settings: read-out: Km of the substrate; P99 enzyme; 20 mM MOPS pH 7.50, 25 °C; cited from earlier work
# [2] = biological target: T1, class C P99 β-lactamase; experiment: P99 β-lactamase inhibition, steady-state competition with cephalothin; assay type: biochemical
# [3] = biological target: AmpC β-lactamase (Escherichia coli, UniProt P00811); experiment: AmpC β-lactamase inhibition, steady-state competition with cephalothin; assay type: biochemical
# [4] = biological target: class A TEM-2 β-lactamase (Escherichia coli, UniProt P62593, Q37K); assay type: biochemical, E. coli W3310
# [5] = biological target: class A Staphylococcus aureus PC1 β-lactamase (Staphylococcus aureus, UniProt P00807); experiment: PC1 β-lactamase inhibition; assay type: biochemical
# [6] = biological target: Actinomadura R39 DD-peptidase (Actinomadura sp., UniProt P39045); experiment: R39 DD-peptidase inhibition in solution; assay type: biochemical
# [7] = biological target: class A SHV-1 β-lactamase (Klebsiella pneumoniae, UniProt P0AD64); experiment: SHV-1 β-lactamase inhibition; assay type: biochemical; settings: even at 1 mM concentrations
# [8] = biological target: Streptomyces R61 DD-peptidase (Streptomyces sp., UniProt P15555); experiment: R61 DD-peptidase inhibition in solution; assay type: biochemical
# [9] = biological target: B. subtilis PBP4a (Bacillus subtilis, UniProt P39844); experiment: PBP4a inhibition in solution; assay type: biochemical
# [10] = test system: E. coli PBP1a/1b; experiment: Membrane-bound PBP inhibition, Bocillin Fl competition gel; assay type: binding; settings: gel experiments, E. coli membranes, 1 h preincubation, Bocillin Fl 20 μM
# [11] = biological target: E. coli PBP2 (Escherichia coli, UniProt P0AD65); experiment: as above; assay type: binding; settings: gel experiments, E. coli membranes, 1 h preincubation, Bocillin Fl 20 μM
# [12] = biological target: E. coli PBP3 (Escherichia coli, UniProt P0AD68); experiment: as above; assay type: binding; settings: gel experiments, E. coli membranes, 1 h preincubation, Bocillin Fl 20 μM
# [13] = biological target: E. coli PBP4 (Escherichia coli, UniProt P24228); experiment: as above; assay type: binding; settings: gel experiments, E. coli membranes, 1 h preincubation, Bocillin Fl 20 μM
# [14] = biological target: E. coli PBP5 (Escherichia coli, UniProt P0AEB2); experiment: as above; assay type: binding; settings: gel experiments, E. coli membranes, 1 h preincubation, Bocillin Fl 20 μM
# [15] = biological target: TEM-1 β-lactamase (Escherichia coli, UniProt P62593, Q37K); experiment: TEM-1 β-lactamase inhibition; assay type: biochemical; settings: even at 1 mM concentrations
# [16] = test system: CC(=O)OCC1=C(C(=O)O)N2C(=O)[C@@H](NC(=O)Cc3cccs3)[C@H]2SC1; experiment: AmpC β-lactamase inhibition, steady-state competition with cephalothin; assay type: biochemical; settings: pH 7.5; 25.0 °C
# [17] = test system: Pseudomonas class C β-lactamase; settings: cited from earlier work
# [18] = test system: class A BCI β-lactamase; settings: cited from earlier work
compound,measurement,setting,value
CC(=O)OCC1=C(C(=O)O)N2C(=O)[C@@H](NC(=O)Cc3cccs3)[C@H]2SC1 [cephalothin],Km,[1],9 µM
"CC1(C)SC(C(NC(=O)Cc2ccccc2)B(O)O)NC1C(=O)O (centres unmarked) [compound 12, 2-[1-(dihydroxyboranyl)(2-phenylacetamido)methyl]-5,5-dimethyl-1,3-thiazolidine-4-carboxylic acid]",Ki,[2],950 ± 110 nM
same,Ki,[3],1300 ± 400 nM
same,Ki,"[4]; TEM-2 β-lactamase, NI = no inhibition at 1.0 mM",NI ^b
same,inhibition of TEM-2 enzyme over time,[4]; in 24 h,no inhibition
same,Ki,"[5]; PCI β-lactamase, NI = no inhibition at 1.0 mM",NI ^b
same,inhibition of PCI β-lactamase,[5]; even at 1 mM concentrations,"Neither the TEM-1, SHV-1, nor PCI β-lactamases were inhibited"
same,Ki,"[6]; R39 DD-peptidase, NI = no inhibition at 0.10 mM",NI ^c
same,inhibition of Actinomadura R39 DD-peptidase,[6]; in solution,no inhibition
same,inhibition of SHV-1 β-lactamase,[7],"Neither the TEM-1, SHV-1, nor PCI β-lactamases were inhibited"
same,inhibition of Streptomyces R61 DD-peptidase,[8],no inhibition
same,inhibition of B. subtilis PBP4a,[9],no inhibition
same,inhibition of E. coli PBP1a/1b,[10],did not inhibit
same,inhibition of E. coli PBP2,[11],did not inhibit
same,inhibition of E. coli PBP3,[12],did not inhibit
same,inhibition of E. coli PBP4,[13],did not inhibit
same,inhibition of E. coli PBP5,[14],did not inhibit
same,inhibition of TEM-1 β-lactamase,[15],"Neither the TEM-1, SHV-1, nor PCI β-lactamases were inhibited"
AmpC β-lactamase (Escherichia coli K-12),Km,[16],13.8 µM
"Methyl penicilloate [compound 28, reference compound]",substrate activity,"[2]; P99 β-lactamase, see Supporting Information",substrate
same,substrate / covalent inhibitor activity,[4],neither a substrate nor a covalent inhibitor
same,substrate activity,[17],substrate
same,substrate / covalent inhibitor activity,[18],neither a substrate nor a covalent inhibitor
